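48-hour exposure; five concentrations; linearly interpolated endpoints. Here, GI50 denotes the concentration required for 50% inhibition of growth.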 The source made the active and inactive calls. No stated cut-off is given here; in the data, active = GI50 up to about 1.1 µM and inactive = higher.
What was measured:
Assay in all cases: NCI anticancer screen, dose series, 48 h
[1] = test system: SK-MEL-5
[2] = test system: SF-539
[3] = test system: RXF 393
[4] = test system: HOP-92
[5] = test system: CAKI-1
[6] = test system: SNB-75
[7] = test system: SK-OV-3
[8] = test system: DLD-1
[9] = test system: NCI-H522
[10] = test system: A498
[11] = test system: UACC-62
[12] = test system: EKVX
[13] = test system: K562
[14] = test system: COLO 205
[15] = test system: DMS-114
[16] = test system: HCT-15
[17] = test system: OVCAR-4
[18] = test system: MDA-MB-435
[19] = test system: BT-549
[20] = test system: DU-145

Compound	GI50 [1]	GI50 [2]	GI50 [3]	GI50 [4]	GI50 [5]	GI50 [6]	GI50 [7]	GI50 [8]	GI50 [9]	GI50 [10]	GI50 [11]	GI50 [12]	GI50 [13]	GI50 [14]	GI50 [15]	GI50 [16]	GI50 [17]	GI50 [18]	GI50 [19]	GI50 [20]
Cc1[nH]c(=O)[nH]c(=O)c1/C=C/C(=O)NC(CO)C[S+]([O-])Cc1ccccc1 (stereo not given)	> 300 µM (inactive)	> 300 µM (inactive)	> 300 µM (inactive)	> 190 µM (inactive)	> 300 µM (inactive)	296 µM (inactive)	> 300 µM (inactive)	> 300 µM (inactive)	> 300 µM (inactive)	> 300 µM (inactive)	> 300 µM (inactive)	> 300 µM (inactive)	> 300 µM (inactive)	> 300 µM (inactive)	> 300 µM (inactive)	> 300 µM	–	–	–	–
C=CC12CN(C)C3C4COC(CC41)C1(C(=O)Nc4ccccc41)C32 (stereo not given)	> 200 µM (inactive)	> 200 µM (inactive)	> 179 µM (inactive)	> 140 µM (inactive)	> 200 µM (inactive)	146 µM (inactive)	> 20 µM (inactive)	198 µM (inactive)	44.7 µM (inactive)	9.29 µM (inactive)	> 178 µM (inactive)	> 200 µM (inactive)	165 µM (inactive)	> 149 µM (inactive)	> 144 µM (inactive)	> 195 µM	> 200 µM (inactive)	–	–	–
CCOC(=O)C(NC(C)=O)(Nc1ccc(F)cc1)C(F)(F)F (stereo not given)	3.03 µM (inactive)	> 100 µM (inactive)	40.3 µM (inactive)	> 100 µM (inactive)	> 100 µM (inactive)	> 100 µM (inactive)	> 100 µM (inactive)	–	> 100 µM (inactive)	–	18.2 µM (inactive)	> 100 µM (inactive)	2.61 µM (inactive)	> 100 µM (inactive)	–	0.49 µM	88.1 µM (inactive)	3.95 µM (inactive)	> 100 µM (inactive)	> 100 µM (inactive)
COc1cc2c(cc1OC)C1Cc3sccc3CN1CC2 (stereo not given)	> 100 µM (inactive)	> 100 µM (inactive)	> 100 µM (inactive)	76.2 µM (inactive)	> 100 µM (inactive)	> 100 µM (inactive)	> 100 µM (inactive)	> 100 µM (inactive)	> 100 µM (inactive)	–	> 100 µM (inactive)	> 100 µM (inactive)	> 100 µM (inactive)	–	> 100 µM (inactive)	> 100 µM	> 100 µM (inactive)	–	–	–
O=C1C(Cl)N(c2ccc(Cl)cc2Cl)C1c1c[nH]c2ccccc12 (stereo not given)	> 100 µM (inactive)	> 100 µM (inactive)	74 µM (inactive)	44.5 µM (inactive)	–	6.49 µM (inactive)	> 100 µM (inactive)	–	> 100 µM (inactive)	–	> 100 µM (inactive)	54 µM (inactive)	> 100 µM (inactive)	> 100 µM (inactive)	> 100 µM (inactive)	–	> 100 µM (inactive)	–	–	–
CC1(C23CC4CC(CC(C4)C2)C3)n2c(=O)n(-c3ccccc3)c(=O)n2C1(C)C12CC3CC(CC(C3)C1)C2 (stereo not given)	> 100 µM (inactive)	> 100 µM (inactive)	–	> 100 µM (inactive)	> 100 µM (inactive)	74.1 µM (inactive)	> 100 µM (inactive)	–	–	> 100 µM (inactive)	> 100 µM (inactive)	91.2 µM (inactive)	> 100 µM (inactive)	> 100 µM (inactive)	–	> 100 µM	–	> 100 µM (inactive)	> 100 µM (inactive)	> 100 µM (inactive)
O=C(O)CN(CC(=O)O)C1CCCCC1N(CC(=O)O)CC(=O)NCCN=C=S (stereo not given)	> 100 µM (inactive)	> 100 µM (inactive)	> 100 µM (inactive)	> 100 µM (inactive)	> 100 µM (inactive)	–	> 100 µM (inactive)	–	> 100 µM (inactive)	> 100 µM (inactive)	> 100 µM (inactive)	> 100 µM (inactive)	> 100 µM (inactive)	–	–	> 100 µM	–	> 100 µM (inactive)	> 100 µM (inactive)	> 100 µM (inactive)
O=c1c(Cc2ccc(Cc3c(O)oc4ccccc4c3=O)cc2)c(O)oc2ccccc12	> 100 µM (inactive)	> 100 µM (inactive)	> 100 µM (inactive)	> 100 µM (inactive)	> 100 µM (inactive)	> 100 µM (inactive)	> 100 µM (inactive)	–	–	> 100 µM (inactive)	> 100 µM (inactive)	> 100 µM (inactive)	> 100 µM (inactive)	> 100 µM (inactive)	–	> 100 µM	> 100 µM (inactive)	> 100 µM (inactive)	> 100 µM (inactive)	> 100 µM (inactive)
CC(C)(C)C1(c2ccc(C3(c4ccccc4)Oc4ccccc4S3)[nH]2)Oc2ccccc2S1 (stereo not given)	> 100 µM (inactive)	> 100 µM (inactive)	> 100 µM (inactive)	26.8 µM (inactive)	> 100 µM (inactive)	–	> 100 µM (inactive)	> 100 µM (inactive)	> 100 µM (inactive)	–	> 100 µM (inactive)	> 100 µM (inactive)	> 100 µM (inactive)	–	> 100 µM (inactive)	> 100 µM	–	–	–	–
NC(=O)CCC(N=C(N)c1csc(C2OC(CO)C(O)C2O)n1)C(=O)O (stereo not given)	> 100 µM (inactive)	> 100 µM (inactive)	> 100 µM (inactive)	–	> 100 µM (inactive)	> 100 µM (inactive)	> 100 µM (inactive)	> 100 µM (inactive)	> 100 µM (inactive)	> 100 µM (inactive)	> 100 µM (inactive)	> 100 µM (inactive)	> 100 µM (inactive)	> 100 µM (inactive)	> 100 µM (inactive)	> 100 µM	> 100 µM (inactive)	–	–	–
COc1cc(-c2ccc(/N=N/c3ccc4c(S(=O)(=O)O)cc(S(=O)(=O)O)c(N)c4c3O)c(OC)c2)ccc1/N=N/c1ccc2c(S(=O)(=O)O)cc(S(=O)(=O)O)c(N)c2c1O	> 100 µM (inactive)	> 100 µM (inactive)	> 100 µM (inactive)	> 100 µM (inactive)	–	> 100 µM (inactive)	> 100 µM (inactive)	> 100 µM (inactive)	> 100 µM (inactive)	> 100 µM (inactive)	> 100 µM (inactive)	> 100 µM (inactive)	> 100 µM (inactive)	> 100 µM (inactive)	> 100 µM (inactive)	> 100 µM	> 100 µM (inactive)	–	–	–

From ChEMBL document CHEMBL1201862, “PubChem BioAssay data set” (2004)
